According to article PMC11960969, “Mdga2 deficiency leads to an aberrant activation of BDNF/TrkB signaling that underlies autism-relevant synaptic and behavioral changes in mice” (PLOS Biology, 2025):

Key:
[1] = test system: AMPAR and NMDAR (evoked EPSCs); experiment: Evoked AMPAR- and NMDAR-mediated EPSCs and AMPAR/NMDAR ratio in hippocampal slices; parameters: species or system mouse
[2] = test system: cell surface GluA1, GluN1; experiment: Cell surface biotinylation of GluA1 and GluN1 in hippocampal neurons; format: cell-based, mouse; conditions: 10 μM ANA-12, 24 h, 12 DIV
Description: ANA-12 was dissolved in saline containing 10% DMSO to a final concentration of 0.5 mg/kg and intraperitoneally administered into male mice. For chronic treatment, ANA-12 was administered to 3-week-old male mice at twice/week for 3 weeks until mice reached 6 weeks of age. For acute treatment, ANA-12 was administered to 4-week-old male mice for three consecutive days. For and cultured neurons, ANA-12 was suspended to a 10 mM concentration in DMSO and diluted 1:1,000 in solution. Final concentration for treatment is 10 µ M with 0.1% DMSO.
Supplementary file pbio.3003047.s005.tif: S5 Fig Pharmacological inhibition of […] improves social behaviors in Mdga2 ^+/− mice. (A, B) The miniature inhibitory postsynaptic currents (mIPSCs) of hippocampal neurons in treated Het mice and their wild-type (WT) littermates were recorded and their kinetics (rise time and decay) were quantified for comparison. n = 14 cells from 3 mice per group. (C, D) The miniature excitatory postsynaptic currents (mEPSCs) of hippocampal neurons in treated mice were recorded and their kinetics (rise time and decay) were quantified for comparison. n = 14 cells from 3 mice per group. (E) Representative traces of evoked NMDAR-mediated EPSCs and quantitative analysis of evoked NMDAR-mediated EPSC amplitude with increasing stimulus intensity. n = 20–23 cells from 3 mice per group. […]

TrkB signaling = experiment: Time course of TrkB signaling inhibition in cerebrum after i.p. ANA-12 (immunoblotting); format: in vivo, mouse; conditions: 0.5 mg/kg i.p., WT and Mdga2-/- mice, S4A Fig
Description: Equal protein amounts of total lysates from cells or mouse tissues were subjected to SDS-PAGE and immunoblotted with antibodies indicated. For Co-IP, 1 mg of protein lysates were incubated with antibodies indicated and Protein G Agarose (ThermoFisher, Cat# 20399) beads at 4 °C overnight, and immunoprecipitated proteins were then subjected to SDS-PAGE and immunoblotting. Uncropped immunoblotting images are shown in S1 Raw Images.
ANA-12 was dissolved in saline containing 10% DMSO to a final concentration of 0.5 mg/kg and intraperitoneally administered into male mice. For chronic treatment, ANA-12 was administered to 3-week-old male mice at twice/week for 3 weeks until mice reached 6 weeks of age. […]
Supplementary file pbio.3003047.s004.tif: S4 Fig Acute ANA-12 treatment temporarily rescues social deficits in Mdga2 ^+/− mice. […] (C–G) Mice were analyzed for their total travel distance in the open field test (C), their discrimination index in the novel location recognition test (D), their time spent self-grooming and bouts of self-grooming (E), their sniffing time in the social affiliation test (F), and their sociability and social novelty preferences in the three-chamber test (G). n = 15 mice per group. […] P-values were determined by two-way ANOVA with Tukey’s multiple comparisons test. ns: not significant, *p < 0.05, **p < 0.01, ***p < 0.001, ns: not significant. […]

SMILES: O=C(Nc1ccccc1C(=O)NC1CCCCNC1=O)c1cc2ccccc2s1 (stereo not shown) [ANA-12, reference compound]
- elevated AMPAR/NMDAR response ratios [1]: effectively attenuated upon chronic ANA-12 treatment
- elevated evoked AMPAR-mediated EPSCs ([1]; Mdga2+/- mice, chronic 0.5 mg/kg i.p., n = 20-21 cells from 3 mice, Fig 5J): effectively attenuated upon chronic ANA-12 treatment
- cell surface distribution of GluA1 in MDGA2-deficient vs WT neurons [2]: became comparable between these neurons upon ANA-12 treatment
- time of main TrkB signaling inhibition after treatment (TrkB signaling): 16 to 24 h
